Reference: ChEMBL document CHEMBL3085700 (J Med Chem, 2013)
Active and inactive are the calls of the source. The rule behind the calls is not given here.

Experiments:
[1] = target: T1, Monoglyceride lipase (Homo sapiens, UniProt Q99685); assay: Inhibition of human recombinant MAGL overexpressed in HEK cells using 2-AG as substrate preincubated for 10 mins before substrate addition measured after 10 mins by HPLC analysis; type: cell-based, HEK293
T1 sequence (Q99685 whole entry): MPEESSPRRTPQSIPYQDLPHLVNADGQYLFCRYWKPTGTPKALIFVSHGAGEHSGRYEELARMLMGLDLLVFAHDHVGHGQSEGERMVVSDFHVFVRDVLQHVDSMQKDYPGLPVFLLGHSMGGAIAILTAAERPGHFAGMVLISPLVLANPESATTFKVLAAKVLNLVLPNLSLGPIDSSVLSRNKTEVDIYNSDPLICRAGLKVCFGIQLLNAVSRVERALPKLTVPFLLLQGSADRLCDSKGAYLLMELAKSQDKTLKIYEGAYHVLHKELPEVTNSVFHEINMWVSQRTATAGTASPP

[2] = target: T2, Fatty-acid amide hydrolase 1 (Homo sapiens, UniProt O00519); assay: Inhibition of human recombinant FAAH overexpressed in African green monkey COS7 cells using [3H]-anandamide as substrate preincubated for 10 mins before substrate addition measured after 10 mins by liquid scintillation counting analysis; type: cell-based, COS-7
T2 sequence (O00519 whole entry): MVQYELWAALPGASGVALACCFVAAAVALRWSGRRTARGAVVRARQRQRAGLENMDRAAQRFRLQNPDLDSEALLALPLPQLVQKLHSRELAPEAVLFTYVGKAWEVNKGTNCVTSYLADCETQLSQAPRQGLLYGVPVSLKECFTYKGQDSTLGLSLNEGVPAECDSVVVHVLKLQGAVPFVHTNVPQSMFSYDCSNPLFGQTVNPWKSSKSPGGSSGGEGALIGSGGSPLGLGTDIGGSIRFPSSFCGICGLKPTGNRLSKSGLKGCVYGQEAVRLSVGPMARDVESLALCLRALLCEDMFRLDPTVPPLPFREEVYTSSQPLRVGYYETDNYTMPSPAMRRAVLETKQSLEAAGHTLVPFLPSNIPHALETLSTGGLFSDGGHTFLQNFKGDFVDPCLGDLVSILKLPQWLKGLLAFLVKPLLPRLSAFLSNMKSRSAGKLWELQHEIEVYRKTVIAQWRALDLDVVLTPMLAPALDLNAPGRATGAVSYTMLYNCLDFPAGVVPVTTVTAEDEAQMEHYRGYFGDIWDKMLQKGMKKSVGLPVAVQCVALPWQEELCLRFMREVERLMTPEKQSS

[3] = target: T3, Lysophosphatidylserine lipase ABHD12 (Homo sapiens) (UniProt Q8N2K0); assay: Inhibition of human ABHD12 overexpressed in HEK293 cells assessed as 2-AG hydrolysis at 1 uM by fluorescent glycerol assay; type: cell-based
T3 sequence (whole entry): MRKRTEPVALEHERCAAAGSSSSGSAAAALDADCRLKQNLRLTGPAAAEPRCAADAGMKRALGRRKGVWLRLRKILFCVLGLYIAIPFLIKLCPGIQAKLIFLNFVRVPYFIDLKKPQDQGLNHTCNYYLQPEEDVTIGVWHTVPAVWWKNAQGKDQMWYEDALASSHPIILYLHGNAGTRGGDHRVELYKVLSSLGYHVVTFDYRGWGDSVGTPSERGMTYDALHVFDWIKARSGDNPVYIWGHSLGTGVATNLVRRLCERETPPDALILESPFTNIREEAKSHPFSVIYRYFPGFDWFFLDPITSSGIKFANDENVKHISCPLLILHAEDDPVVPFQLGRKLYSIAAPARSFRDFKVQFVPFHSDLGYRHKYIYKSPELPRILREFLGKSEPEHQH

[4] = target: T4, Monoacylglycerol lipase ABHD6 (Homo sapiens) (UniProt Q9BV23); assay: Inhibition of human ABHD6 overexpressed in HEK293 cells assessed as 2-AG hydrolysis at 1 uM by fluorescent glycerol assay; type: cell-based
T4 sequence (whole entry): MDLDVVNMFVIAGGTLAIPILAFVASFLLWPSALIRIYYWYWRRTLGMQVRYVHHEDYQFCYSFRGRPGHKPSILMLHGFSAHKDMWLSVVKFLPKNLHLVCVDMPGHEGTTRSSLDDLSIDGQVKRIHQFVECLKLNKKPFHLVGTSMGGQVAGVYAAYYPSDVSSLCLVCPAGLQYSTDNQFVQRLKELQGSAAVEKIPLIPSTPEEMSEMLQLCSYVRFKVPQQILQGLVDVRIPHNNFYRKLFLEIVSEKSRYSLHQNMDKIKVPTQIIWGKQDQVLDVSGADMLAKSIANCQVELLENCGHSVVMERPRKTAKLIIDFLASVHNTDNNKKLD

[5] = target: T5, Monoglyceride lipase (Homo sapiens) (UniProt Q99685); assay: Inhibition of human recombinant MAGL overexpressed in HEK cells using 2-AG as substrate at 10 uM preincubated for 10 mins before substrate addition measured after 10 mins by HPLC analysis relative to control; type: cell-based; details: HEK293
T5 sequence (whole entry): T1 sequence (Q99685 whole entry)

[6] = target: T6, Fatty-acid amide hydrolase 1 (Homo sapiens) (UniProt O00519); assay: Inhibition of human recombinant FAAH overexpressed in African green monkey COS7 cells using [3H]-anandamide as substrate at 10 uM preincubated for 10 mins before substrate addition measured after 10 mins by liquid scintillation counting analysis relative to control; type: cell-based; details: COS-7
T6 sequence (whole entry): T2 sequence (O00519 whole entry)

[7] = target: T6, Fatty-acid amide hydrolase 1 (Homo sapiens); assay: Inhibition of human recombinant FAAH overexpressed in African green monkey COS7 cells using [3H]-anandamide as substrate at 3 to 30 uM preincubated for 10 to 60 mins by liquid scintillation counting analysis; type: cell-based; details: COS-7
[8] = target: T6, Fatty-acid amide hydrolase 1 (Homo sapiens); assay: Inhibition of human recombinant FAAH overexpressed in African green monkey COS7 cells using [3H]-anandamide as substrate at 10 to 100 uM preincubated for 10 to 60 mins by liquid scintillation counting analysis; type: cell-based; details: COS-7
[9] = target: T6, Fatty-acid amide hydrolase 1 (Homo sapiens); assay: Inhibition of human recombinant FAAH overexpressed in African green monkey COS7 cells using [3H]-anandamide as substrate at 10 to 300 uM preincubated for 10 to 60 mins by liquid scintillation counting analysis; type: cell-based; details: COS-7
[10] = target: T6, Fatty-acid amide hydrolase 1 (Homo sapiens); assay: Reversible inhibition of human recombinant FAAH overexpressed in African green monkey COS7 cells using […] as substrate assessed as recovery of enzyme activity at 20 x IC50 preincubated for 60 mins followed by 500 fold dilution measured after 10 mins by HPLC analysis; type: cell-based; details: COS-7
[11] = target: T6, Fatty-acid amide hydrolase 1 (Homo sapiens); assay: Noncompetitive inhibition of human recombinant FAAH overexpressed in African green monkey COS7 cells using anandamide as substrate assessed as decrease in Vmax of substrate hydrolysis preincubated for 10 mins before substrate addition measured after 10 mins by HPLC analysis; details: COS-7
[12] = target: Cannabinoid receptor 2 (Homo sapiens) (UniProt P34972); assay: Agonist activity at human CB2 receptor expressed in CHO cell membranes up to 10 uM incubated for 10 mins prior to testing by [35S]GTPgammaS binding assay; type: functional
Chain of Cannabinoid receptor 2 (Homo sapiens) (P34972 whole entry): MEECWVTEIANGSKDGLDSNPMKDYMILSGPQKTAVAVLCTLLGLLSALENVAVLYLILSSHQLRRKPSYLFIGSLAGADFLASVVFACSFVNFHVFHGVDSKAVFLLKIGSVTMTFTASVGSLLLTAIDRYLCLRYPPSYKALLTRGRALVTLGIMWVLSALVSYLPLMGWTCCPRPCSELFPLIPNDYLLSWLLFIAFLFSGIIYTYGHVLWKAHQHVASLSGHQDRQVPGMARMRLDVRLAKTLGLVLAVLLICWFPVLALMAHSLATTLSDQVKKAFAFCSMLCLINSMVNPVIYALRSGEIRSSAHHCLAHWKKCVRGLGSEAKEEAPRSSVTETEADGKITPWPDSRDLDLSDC

[13] = target: Cannabinoid receptor 1 (Rattus norvegicus) (UniProt P20272); assay: Antagonist activity at CB1 receptor in rat cerebellar membranes assessed as HU210-evoked response up to 10 uM incubated for 10 mins prior to testing by [35S]GTPgammaS binding assay; type: functional, cell membranes; details: Cerebellum, Membrane
Chain of Cannabinoid receptor 1 (Rattus norvegicus) (P20272 whole entry): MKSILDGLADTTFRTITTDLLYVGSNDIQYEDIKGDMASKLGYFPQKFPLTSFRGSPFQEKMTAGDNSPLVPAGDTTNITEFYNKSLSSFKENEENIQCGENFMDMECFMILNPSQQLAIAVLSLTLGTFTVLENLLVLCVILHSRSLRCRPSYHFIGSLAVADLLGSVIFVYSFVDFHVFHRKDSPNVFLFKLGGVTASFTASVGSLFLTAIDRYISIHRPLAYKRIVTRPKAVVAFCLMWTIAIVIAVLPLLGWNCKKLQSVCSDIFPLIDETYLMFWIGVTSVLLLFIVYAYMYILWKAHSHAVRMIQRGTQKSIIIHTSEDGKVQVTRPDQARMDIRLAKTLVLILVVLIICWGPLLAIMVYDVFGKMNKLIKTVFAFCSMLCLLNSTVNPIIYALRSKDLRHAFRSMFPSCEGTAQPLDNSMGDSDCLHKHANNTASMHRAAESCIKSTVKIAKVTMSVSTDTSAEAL

[14] = target: Cannabinoid receptor 1 (Rattus norvegicus) (UniProt P20272); assay: Agonist activity at CB1 receptor in rat cerebellar membranes up to 10 uM incubated for 10 mins prior to testing by [35S]GTPgammaS binding assay; type: functional, cell membranes; details: Cerebellum, Membrane
[15] = target: T7, Prostaglandin G/H synthase 1 (Ovis aries) (UniProt P05979); assay: Inhibition of ovine COX-1 using arachidonic acid as substrate assessed as oxygen consumption at 30 uM measured within 10 to 50 secs
T7 sequence (whole entry): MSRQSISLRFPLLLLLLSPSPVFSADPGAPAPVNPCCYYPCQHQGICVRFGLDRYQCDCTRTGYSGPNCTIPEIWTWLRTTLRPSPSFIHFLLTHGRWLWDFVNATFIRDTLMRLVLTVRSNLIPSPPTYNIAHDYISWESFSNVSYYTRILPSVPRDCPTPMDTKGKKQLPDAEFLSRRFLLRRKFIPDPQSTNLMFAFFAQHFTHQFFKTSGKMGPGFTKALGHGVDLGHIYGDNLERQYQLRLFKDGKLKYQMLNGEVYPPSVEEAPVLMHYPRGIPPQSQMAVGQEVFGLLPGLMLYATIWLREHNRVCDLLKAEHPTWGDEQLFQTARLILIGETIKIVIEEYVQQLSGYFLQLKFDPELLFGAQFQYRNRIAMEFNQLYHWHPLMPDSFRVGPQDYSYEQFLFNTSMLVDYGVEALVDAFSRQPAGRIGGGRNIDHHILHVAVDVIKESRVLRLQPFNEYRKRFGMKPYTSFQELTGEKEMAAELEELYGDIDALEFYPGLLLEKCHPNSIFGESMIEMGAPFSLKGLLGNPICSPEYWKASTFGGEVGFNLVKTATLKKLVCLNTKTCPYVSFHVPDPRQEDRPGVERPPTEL

| Structure (SMILES) | IC50 ([2]; read-out: IC50) | IC50 ([2]; read-out: pIC50 (converted)) | inhibition [3] | inhibition [4] | inhibition [5] | further results |
| --- | --- | --- | --- | --- | --- | --- |
| COc1nn(Cc2ccc(CC(C)C)cc2)c(=O)o1 | 91 nM | 89.1 nM | inactive | inactive |  | IC50 ([1]; read-out: IC50): 1300 nM |
| COc1nn([C@H](C)c2ccc(-c3ccccc3)cc2)c(=O)o1 | 3000 nM | 2880 nM | inactive | inactive | 49% |  |
| COc1nn(C2CCCCC2)c(=O)o1 |  |  | inactive | inactive | inactive | inhibition [6]: 40% |
| COc1nn(C(C)c2ccc(Oc3ccccc3)cc2)c(=O)o1 (stereo not given) | 34 nM | 33.9 nM | inactive | inactive |  | IC50 ([1]; read-out: IC50): 2000 nM |
| COc1nn(Cc2ccc(Oc3ccccc3)cc2)c(=O)o1 |  | 100 nM | inactive | inactive |  | IC50 ([1]; read-out: IC50): 400 nM; IC50 ([2]; cos-7, read-out: IC50): 100 nM |
| COc1nn(C(C)c2cccc(-c3ccccc3)c2)c(=O)o1 (stereo not given) | 1200 nM | 1170 nM | inactive | inactive | 42% |  |
| COc1nn(C(C)c2ccc(CC(C)C)cc2)c(=O)o1 (racemic) | 23 nM | 22.9 nM | inactive | inactive | 48% |  |
| COc1nn([C@@H](C)c2ccc(N(c3ccccc3)c3ccccc3)cc2)c(=O)o1 | 98 nM | 100 nM | inactive | inactive | 41% | inhibition [7]: Active; inhibition [8]: Active; inhibition [9]: Active; inhibition [10]: Active; inhibition [11]: Dose-dependent effect |
| COc1nn(C(C)c2ccccc2)c(=O)o1 (stereo not given) | 6000 nM | 6030 nM | inactive | inactive | inactive |  |
| COc1nn(Cc2ccc(N(c3ccccc3)c3ccccc3)cc2)c(=O)o1 | 470 nM | 457 nM | inactive | inactive |  | IC50 ([1]; read-out: IC50): 260 nM |
| COc1nn([C@H](C)c2ccc(N(c3ccccc3)c3ccccc3)cc2)c(=O)o1 | 6300 nM | 6170 nM | inactive | inactive |  | IC50 ([1]; read-out: IC50): 350 nM; IC50 ([1]; read-out: pIC50 (converted)): 339 nM |
| COc1nn(Cc2ccc(-c3ccccc3)cc2)c(=O)o1 | 160 nM | 162 nM | inactive | inactive |  | IC50 ([1]; read-out: IC50): 1600 nM |
| COc1nn(C(C)c2ccc(-c3ccccc3)cc2)c(=O)o1 (racemic) | 48 nM | 46.8 nM | inactive | inactive | 34% |  |
| COc1nn([C@@H](C)c2ccc(-c3ccccc3)cc2)c(=O)o1 | 23 nM | 23.4 nM | inactive | inactive | 18% | Activity [12]: inactive; Activity [13]: inactive; inhibition [7]: Active; inhibition [8]: Active; inhibition [9]: Active; inhibition [10]: Active; Activity [14]: inactive; inhibition [11]: Dose-dependent effect |
| COc1nn(C(C)C)c(=O)o1 |  |  | inactive | inactive | 6% | inhibition [6]: 12% |
| COc1nn(Cc2ccccc2Oc2ccccc2)c(=O)o1 | 6300 nM | 6310 nM | inactive | inactive | inactive |  |
| CC(C(=O)O)c1ccc(-c2ccccc2)c(F)c1 (stereo not given) |  |  |  |  |  | inhibition [15]: Active |
| COc1nn(Cc2cccc(-c3ccccc3)c2)c(=O)o1 |  |  | inactive | inactive | 32% | inhibition [6]: 46% |
| COc1nn(Cc2ccccc2)c(=O)o1 |  |  | inactive | inactive | inactive | inhibition [6]: inactive |
| COc1nn(C(c2ccccc2)c2ccccc2)c(=O)o1 |  |  | inactive | inactive | inactive | inhibition [6]: inactive |
| COc1nn(Cc2cccc(Oc3ccccc3)c2)c(=O)o1 | 980 nM | 977 nM | inactive | inactive | 15% |  |
| COc1nn(C(C)c2cccc(Oc3ccccc3)c2)c(=O)o1 (stereo not given) | 5200 nM | 5250 nM | inactive | inactive | 14% |  |
